# Measured values as given in patent US8715368B2, “Thiophene azo dyes and laundry care compositions containing the same” (The Procter & Gamble Company, priority 2010, dated 2014).
# Assay: Aqueous Partition Value of a dye (water/1-octanol partitioning, absorbance at λmax)
# Type: physicochemical
# Conditions: deionized water/1-octanol 10.0 mL each, APV=(Af/Ai)×100%
# Procedure: Dissolve in deionized water to a final volume of 10.0 mL an amount of dye sufficient to provide a solution absorbance value between 0.25 and 1.0, said absorbance being determined at the dye λmax between 400 nm and 750 nm, using a cuvette with 1.0 cm path length. Measure the absorbance of the sample at the dye λmax in a UV/Vis spectrophotometer, then transfer the entire 10.0 mL solution to a 50.0 mL plastic centrifuge tube. Add 10.0 mL of 1-octanol, cap the tube, and mix vigorously for 30 seconds using a Vortex™ mixer. Leave the tube standing undisturbed until the layers cleanly phase separate.
# Using a transfer pipette, withdraw an aliquot of the aqueous (bottom) layer and transfer it to a cuvette with 1.0 cm path length for spectrophotometric analysis. Analyze the solution as before, and quantify the absorbance loss at λmax as “% of Dye Remaining in Aqueous Layer” as detailed below: % of Dye Remaining in Aqueous Layer=Aqueous Partition Value (APV)=(Af/Ai)×100% wherein Ai is the initial solution absorbance at λmax and Af is the final solution absorbance at λmax. II. Method for Determining Hueing Efficiency for Detergents • a.) Two 25 cm×25 cm fabric swatches of 16 oz white cotton interlock knit fabric (270 g/square meter, brightened with Uvitex BNB fluorescent whitening agent, from Test Fabrics. P.O. Box 26, Weston, Pa., 18643) are obtained. • b.) Prepare two one liter aliquots of tap water containing 1.55 g of AATCC standard heavy duty liquid (HDL) test detergent. • c.) Add a sufficient amount the dye to be tested to one of the aliquots from Step b.) above to produce an aqueous solution absorbance of 1 AU. • d.) Wash one swatch from a.) above in one of the aliquots of water containing 1.55 g of AATCC standard heavy duty liquid (HDL) test detergent and wash the other swatch in the other aliquot. Such washing step should be conducted for 30 minutes at room temperature with agitation. After such washing step separately rinse the swatches in tap water and air dry the swatches in the dark. • e.) After rinsing and drying each swatch, the hueing efficiency, DE*eff, of the dye is assessed by determining the L*, a*, and b* value measurements of each swatch using a Hunter LabScan XE reflectance spectrophotometer with D65 illumination, 10° observer and UV filter excluded. The hueing efficiency of the dye is then calculated using the following equation: DE*eff=((L*c−L*s)^2+(a*c−a*s)^2+(b*c−b*s)^2)^1/2 • wherein the subscripts c and s respectively refer to the L*, a*, and b* values measured for the control, i.e., the fabric sample washed in detergent with no dye, and the fabric sample washed in detergent containing the dye to be screened. III. Method for Determining Wash Removability • a.) Prepare two separate 150 ml aliquots of HDL detergent solution, according to AATCC Test Method 61-2003, Test 2A and containing 1.55 g/liter of the AATCC HDL formula in distilled water. • b.) A 15 cm×5 cm sample of each fabric swatch from the Method for Determining of Hueing Efficiency For Detergents described above is washed in a Launderometer for 45 minutes at 49° C. in 150 ml of a the HDL detergent solution prepared according to Step 11. a.) above. • c.) The samples are rinsed with separate aliquots of rinse water and air dried in the dark, and then L*, a*, and b* value measurements of each swatch are taken using a Hunter LabScan XE reflectance spectrophotometer with D65 illumination, 10° observer and UV filter excluded. The amount of residual coloration is assessed by measuring the DE*res, calculated using the following equation: DE*res=((L*c−L*s)^2+(a*c−a*s)^2+(b*c−b*s)^2)^1/2 • wherein the subscripts c and s respectively refer to the L*, a*, and b* values measured for the control, i.e., the fabric sample initially washed in detergent with no dye, and the fabric sample initially washed in detergent containing the dye to be screened. The wash removal value for the dye is then calculated according to the formula: % removal=100×(1−DE*res/DE*eff). C. Test Results […]
row,% Dye in Water Layer [%],Compound
1,75,COc1cc(/N=N/c2sc(C#N)c(C)c2C#N)c(C)cc1N(CCOCCOCC[N+](C)(C)CCO)CCOCC[N+](C)(C)CCO [Example 21]
2,56,COc1cc(/N=N/c2sc(C#N)c(C)c2C#N)c(C)cc1N(CCOCCOCC[N+](CCO)(CCO)CCO)CCOCC[N+](CCO)(CCO)CCO [Example 22]
3,66,CC[N+](CC)(CC)CCOCCOCCN(CCOCC[N+](CC)(CC)CC)c1ccc(/N=N/c2sc(C#N)c(C)c2C#N)c(C)c1 [Example 35]
4,94,CC[N+](CC)(CC)CCN(CC[N+](CC)(CC)CC)c1ccc(/N=N/c2sc(C#N)c(C)c2C#N)c(C)c1 [Example 36]

# The next lines start with the compound.
row,Compound,% Dye in Water Layer [%]
1,COc1cc(/N=N/c2sc(C#N)c(C)c2C#N)c(C)cc1N(CCn1cc[n+](C)c1)CCn1cc[n+](C)c1 [Example 1],97
2,Cc1cc(N(CCn2cc[n+](C)c2)CCn2cc[n+](C)c2)ccc1/N=N/c1sc(C#N)c(C)c1C#N [Example 2],83
3,CCN(CC[N+](CC)(CC)CC)c1ccc(/N=N/c2sc(C#N)c(C)c2C#N)c(C)c1 [Example 7],15
4,CCN(CCOCCOCCOCCOCC[N+](CC)(CC)CC)c1ccc(/N=N/c2sc(C#N)c(C)c2C#N)c(C)c1 [Example 12],15
5,CC[N+](CC)(CC)CCOCCOCCN(CCOCC[N+](CC)(CC)CC)c1cc(C)c(/N=N/c2sc(C#N)c(C)c2C#N)cc1OC [Example 18],49
6,CC[N+](CC)(CC)CCOCCOCCN(CCOCC[N+](CC)(CC)CC)c1cc(OC)c(/N=N/c2sc(C#N)c(C)c2C#N)cc1OC [Example 19],78
